Calls of active or inactive are those of the source. The rule behind the calls is not given here.
Experiments:
RAW264.7 [1] = assay: Cytotoxicity against mouse RAW264.7 cells at 80 uM after 24 hrs by MTT assay; type: cell-based; conditions: raw264.7, 24 h
RAW264.7 [2] = assay: Antiinflammatory activity in mouse RAW264.7 cells assessed as inhibition of LPS-induced NO production at 50 uM incubated for 2 hrs prior to LPS-challenge measured after 24 hrs by Griess method; type: functional
RAW264.7 [3] = assay: Antiinflammatory activity in mouse RAW264.7 cells assessed as inhibition of LPS-induced NO production incubated for 2 hrs prior to LPS-challenge measured after 24 hrs by Griess method; type: functional, cell-based
RAW264.7 [4] = assay: Cytotoxicity against mouse LPS-challenged RAW264.7 cells at 80 uM after 24 hrs by MTT assay; type: cell-based; conditions: raw264.7, 24 h
Mus musculus [5] = assay: Antiinflammatory activity in ICR mouse assessed as protection against LPS-induced sepsis at 20 mg/kg, ip administered for 5 days prior to LPS-challenge measured after 2 hrs; type: functional, organism-based; set-up: dose 20 mg/kg
Mus musculus [6] = assay: Antiinflammatory activity in ICR mouse assessed as reversal in LPS-induced weight loss at 20 mg/kg, ip administered for 5 days prior to LPS-challenge measured from day 9 to 11 relative to control; type: functional, organism-based; set-up: dose 20 mg/kg
Mus musculus [7] = assay: Antiinflammatory activity in ICR mouse assessed as reversal in LPS-induced weight loss at 20 mg/kg, ip administered for 5 days prior to LPS-challenge measured up to day 8 relative to control; type: functional, organism-based; set-up: dose 20 mg/kg
[8] = target: T1, NF-kappa-B inhibitor alpha (Mus musculus) (UniProt Q9Z1E3); assay: Inhibition of IkappaB phosphorylation in mouse RAW264.7 cells assessed as decrease in LPS-induced phospho-IkappaBalpha level at 75 uM incubated for 2 hrs prior to LPS-challenge measured after 30 mins by Western blot analysis; type: cell-based
T1 sequence (whole entry): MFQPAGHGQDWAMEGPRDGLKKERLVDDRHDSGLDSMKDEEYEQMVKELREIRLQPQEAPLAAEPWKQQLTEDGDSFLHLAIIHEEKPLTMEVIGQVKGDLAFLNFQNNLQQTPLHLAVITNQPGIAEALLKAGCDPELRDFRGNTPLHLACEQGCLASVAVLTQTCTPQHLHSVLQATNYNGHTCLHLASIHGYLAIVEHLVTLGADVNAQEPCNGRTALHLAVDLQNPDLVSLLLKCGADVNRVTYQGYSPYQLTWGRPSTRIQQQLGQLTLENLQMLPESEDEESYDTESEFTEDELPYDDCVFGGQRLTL

[9] = target: T1, NF-kappa-B inhibitor alpha (Mus musculus); assay: Inhibition of IkappaBalpha degradation in mouse LPS-induced RAW264.7 cells assessed as increase in cytosolic IkappaB level at 75 uM incubated for 2 hrs prior to LPS-challenge measured after 30 mins by Western blot analysis; type: cell-based
Mus musculus [10] = assay: Antiinflammatory activity in ICR mouse assessed as protection against LPS-induced sepsis at 50 mg/kg, ip administered for 5 days prior to LPS-challenge measured after 2 hrs; type: functional, organism-based; set-up: dose 50 mg/kg
RAW264.7 [11] = assay: Inhibition of ERK phosphorylation in mouse LPS-induced RAW264.7 cells at 75 uM incubated for 2 hrs prior to LPS-challenge measured after 30 mins by Western blot analysis; type: cell-based
[12] = target: MAP kinase p38 (Mus musculus) (UniProt P47811+O08911+Q9WUI1+Q9Z1B7); assay: Inhibition of MAPK p38 in mouse LPS-induced RAW264.7 cells at 75 uM incubated for 2 hrs prior to LPS-challenge measured after 30 mins by Western blot analysis; type: cell-based
RAW264.7 [13] = assay: Antiinflammatory activity in mouse RAW264.7 cells assessed as inhibition of LPS-stimulated TNF-alpha mRNA expression at 75 uM incubated for 2 hrs prior to LPS-challenge measured after 8 hrs by quantitative real time PCR analysis; type: functional, cell-based
RAW264.7 [14] = assay: Inhibition of JNK phosphorylation in mouse LPS-induced RAW264.7 cells at 75 uM incubated for 2 hrs prior to LPS-challenge measured after 30 mins by Western blot analysis; type: cell-based
RAW264.7 [15] = assay: Antiinflammatory activity in mouse RAW264.7 cells assessed as inhibition of LPS-stimulated IL-1beta mRNA expression at 75 uM incubated for 2 hrs prior to LPS-challenge measured after 8 hrs by quantitative real time PCR analysis; type: functional, cell-based
RAW264.7 [16] = assay: Antiinflammatory activity in mouse RAW264.7 cells assessed as inhibition of LPS-induced iNOS protein expression at 75 uM incubated for 2 hrs prior to LPS-challenge measured after 24 hrs by Western blot analysis; type: functional, cell-based
RAW264.7 [17] = assay: Antiinflammatory activity in mouse RAW264.7 cells assessed as inhibition of LPS-stimulated IL-6 mRNA expression at 75 uM incubated for 2 hrs prior to LPS-challenge measured after 8 hrs by quantitative real time PCR analysis; type: functional, cell-based
[18] = target: T1, NF-kappa-B inhibitor alpha (Mus musculus); assay: Inhibition of IkappaBalpha in mouse RAW264.7 cells assessed as inhibition of LPS-stimulated NF-kappaB p65 subunit accumulation in nucleus at 75 uM incubated for 2 hrs prior to LPS-challenge measured after 30 mins by Western blot analysis; type: cell-based

| SMILES | IC50 (RAW264.7 [3]) | Activity (RAW264.7 [1]) | inhibition at 50 µM (RAW264.7 [2]) | Activity (RAW264.7 [4]) | further results |
| --- | --- | --- | --- | --- | --- |
| CC1(C)C(=O)CC[C@]2(C)C3=CC=C4[C@@H]5C[C@@](C)(C(=O)O)CC[C@]5(C)CC[C@@]4(C)[C@]3(C)CC[C@@H]12 | > 50 µM | Non-toxic | 7.36% | Non-toxic |  |
| CC1(C)C(=O)C=C[C@]2(C)C3=CC=C4[C@@H]5C[C@@](C)(C(=O)O)CC[C@]5(C)CC[C@@]4(C)[C@]3(C)CC[C@@H]12 | > 50 µM | Non-toxic | 25.1% | Non-toxic |  |
| COC(=O)[C@@]1(C)CC[C@]2(C)CC[C@]3(C)C(=CC=C4[C@@]5(C)C=C(O)C(=O)C(C)(C)[C@@H]5CC[C@]43C)[C@@H]2C1 | 38.6 µM | Non-toxic | 33.3% | Non-toxic |  |
| CC1(C)[C@@H](O)CC[C@]2(C)C3=CC=C4[C@@H]5C[C@@](C)(C(=O)O)CC[C@]5(C)CC[C@@]4(C)[C@]3(C)CC[C@@H]12 | > 50 µM | Non-toxic | 15.6% | Non-toxic |  |
| COC(=O)[C@@]1(C)CC[C@]2(C)CC[C@]3(C)C(=CC=C4[C@@]5(C)C=CC(=O)C(C)(C)[C@@H]5CC[C@]43C)[C@@H]2C1 | > 50 µM | Non-toxic | 5.5% | Non-toxic |  |
| CC1(C)C(=O)C(O)=C[C@]2(C)C3=CC=C4[C@@H]5C[C@@](C)(C(=O)n6ccnc6)CC[C@]5(C)CC[C@@]4(C)[C@]3(C)CC[C@@H]12 | 6.22 µM | Non-toxic | 99% | Non-toxic |  |
| COC(=O)[C@@]1(C)CC[C@]2(C)CC[C@]3(C)C(=CC=C4[C@@]5(C)C=C(C#N)C(=O)C(C)(C)[C@@H]5CC[C@]43C)[C@@H]2C1 | 20 µM | Non-toxic | 67.3% | Non-toxic |  |
| CC1(C)C(=O)C=C[C@]2(C)C3=CC=C4[C@@H]5C[C@@](C)(C(N)=O)CC[C@]5(C)CC[C@@]4(C)[C@]3(C)CC[C@@H]12 | 40.1 µM | Non-toxic | 32.5% | Non-toxic |  |

The next lines start with results.

| IC50 (RAW264.7 [3]) | SMILES | Activity (RAW264.7 [1]) | inhibition at 50 µM (RAW264.7 [2]) | Activity (RAW264.7 [4]) | further results |
| --- | --- | --- | --- | --- | --- |
| 28.5 µM | CC1(C)C(=O)C=C[C@]2(C)C3=CC=C4[C@@H]5C[C@@](C)(C#N)CC[C@]5(C)CC[C@@]4(C)[C@]3(C)CC[C@@H]12 | Non-toxic | 50.2% | Non-toxic |  |
| 32.8 µM | CC1(C)C(=O)C(O)=C[C@]2(C)C3=CC=C4[C@@H]5C[C@@](C)(C(=O)O)CC[C@]5(C)CC[C@@]4(C)[C@]3(C)CC[C@@H]12 | Non-toxic | 42.1% | Non-toxic |  |
| 1.43 µM | C[C@@H]1C[C@H]2[C@@H]3CCC4=CC(=O)C=C[C@]4(C)[C@@]3(F)[C@@H](O)C[C@]2(C)[C@@]1(O)C(=O)CO [DEXAMETHASONE] |  | 98.2% |  | Activity (Mus musculus [5]): Active; Activity (Mus musculus [6]): Active; Activity (Mus musculus [7]): inactive |
| 25.1 µM | CC1(C)C(=O)C(I)=C[C@]2(C)C3=CC=C4[C@@H]5C[C@@](C)(C#N)CC[C@]5(C)CC[C@@]4(C)[C@]3(C)CC[C@@H]12 | Non-toxic | 52.9% | Non-toxic |  |
| 20.1 µM | CC1(C)C(=O)C(I)=C[C@]2(C)C3=CC=C4[C@@H]5C[C@@](C)(C(=O)O)CC[C@]5(C)CC[C@@]4(C)[C@]3(C)CC[C@@H]12 | Non-toxic | 60.3% | Non-toxic |  |
| 3.08 µM | CC1(C)C(=O)C(C#N)=C[C@]2(C)C3=CC=C4[C@@H]5C[C@@](C)(C(=O)O)CC[C@]5(C)CC[C@@]4(C)[C@]3(C)CC[C@@H]12 | Non-toxic | 98.4% | Non-toxic |  |
| 188 µM | CC1(C)[C@@H](O)CC[C@]2(C)[C@H]3C(=O)C=C4[C@@H]5C[C@@](C)(C(=O)O)CC[C@]5(C)CC[C@@]4(C)[C@]3(C)CC[C@@H]12 [ENOXOLONE] |  | 5.12% |  | inhibition [8]: Active; inhibition [9]: Active; Activity (Mus musculus [10]): Active; inhibition (RAW264.7 [11]): Active; inhibition [12]: Active; inhibition (RAW264.7 [13]): Active; inhibition (RAW264.7 [14]): Active; inhibition (RAW264.7 [15]): Active; inhibition (RAW264.7 [16]): Active; inhibition (RAW264.7 [17]): Active; inhibition [18]: Active |
| > 50 µM | COC(=O)[C@@]1(C)CC[C@]2(C)CC[C@]3(C)C(=CC=C4[C@@]5(C)C=C(I)C(=O)C(C)(C)[C@@H]5CC[C@]43C)[C@@H]2C1 | Non-toxic | 15.3% | Non-toxic |  |
| > 50 µM | CNC(=O)[C@@]1(C)CC[C@]2(C)CC[C@]3(C)C(=CC=C4[C@@]5(C)C=C(O)C(=O)C(C)(C)[C@@H]5CC[C@]43C)[C@@H]2C1 | Non-toxic | 27.6% | Non-toxic |  |
| 35.1 µM | CC1(C)C(=O)C(O)=C[C@]2(C)C3=CC=C4[C@@H]5C[C@@](C)(C(N)=O)CC[C@]5(C)CC[C@@]4(C)[C@]3(C)CC[C@@H]12 | Non-toxic | 37.5% | Non-toxic |  |

Source: ChEMBL document CHEMBL2331446, “Discovery of a potential anti-inflammatory agent: 3-oxo-29-noroleana-1,9(11),12-trien-2,20-dicarbonitrile” (J Med Chem, 2013)
